From ChEMBL document CHEMBL4610061, “Identification of novel GPR81 agonist lead series for target biology evaluation” (Bioorg Med Chem Lett, 2020)
Converted amounts (≈) assume the structure as drawn. The source made the active and inactive calls. No cut-off for these calls is given here.

Experiments:
[1] = target: T1, Hydroxycarboxylic acid receptor 1 (Homo sapiens, UniProt Q9BXC0); test: Agonist activity at human GPR81 overexpressed in CHO cells assessed as inhibition of forskolin-stimulated cAMP production; assay type: functional, cell-based
T1 sequence (Q9BXC0 whole entry): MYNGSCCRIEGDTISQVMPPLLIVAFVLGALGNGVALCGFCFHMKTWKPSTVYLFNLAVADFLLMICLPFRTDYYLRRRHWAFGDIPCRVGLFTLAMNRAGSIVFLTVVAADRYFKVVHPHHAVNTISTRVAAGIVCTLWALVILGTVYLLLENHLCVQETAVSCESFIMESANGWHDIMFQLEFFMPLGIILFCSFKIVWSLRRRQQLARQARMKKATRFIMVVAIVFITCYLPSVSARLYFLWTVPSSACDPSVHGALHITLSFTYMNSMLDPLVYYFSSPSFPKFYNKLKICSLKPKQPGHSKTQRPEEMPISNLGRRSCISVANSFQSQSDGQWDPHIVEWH

[2] = Distribution coefficient, logD of compound at pH 7.4; assay type: physicochemical; settings: octanol/water
[3] = Solubility of compound; assay type: physicochemical
[4] = target: Growth hormone secretagogue receptor type 1 (Homo sapiens, UniProt Q92847); test: Displacement of [125I]-ghrelin from human GHS-R1a stably expressed in HEK cell membrane measured after 60 mins by gamma counter method; assay type: cell membranes
Sequence of Growth hormone secretagogue receptor type 1 (Q92847 whole entry): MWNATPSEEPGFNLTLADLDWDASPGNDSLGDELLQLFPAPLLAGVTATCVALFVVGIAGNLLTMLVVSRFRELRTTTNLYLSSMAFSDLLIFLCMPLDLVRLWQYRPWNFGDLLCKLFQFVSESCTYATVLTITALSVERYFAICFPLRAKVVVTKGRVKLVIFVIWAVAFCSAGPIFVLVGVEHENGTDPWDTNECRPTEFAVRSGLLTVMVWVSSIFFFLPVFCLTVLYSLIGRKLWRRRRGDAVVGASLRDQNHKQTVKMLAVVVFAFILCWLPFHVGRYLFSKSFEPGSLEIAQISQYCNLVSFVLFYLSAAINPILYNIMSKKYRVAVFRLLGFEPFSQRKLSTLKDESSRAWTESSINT

Homo sapiens = organism: Homo sapiens; test: Selectivity index, ratio of IC50 for displacement of [125I]-ghrelin from human GHS-R1a stably expressed in HEK cell membrane measured after 60 mins by gamma counter method to EC50 for agonist activity at human GPR81 overexpressed in CHO cells assessed as inhibition of forskolin-stimulated cAMP production; assay type: cell membranes
[5] = target: Hydroxycarboxylic acid receptor 2 (Homo sapiens, UniProt Q8TDS4); test: Agonist activity at human GPR109A receptor
Sequence of Hydroxycarboxylic acid receptor 2 (Q8TDS4 whole entry): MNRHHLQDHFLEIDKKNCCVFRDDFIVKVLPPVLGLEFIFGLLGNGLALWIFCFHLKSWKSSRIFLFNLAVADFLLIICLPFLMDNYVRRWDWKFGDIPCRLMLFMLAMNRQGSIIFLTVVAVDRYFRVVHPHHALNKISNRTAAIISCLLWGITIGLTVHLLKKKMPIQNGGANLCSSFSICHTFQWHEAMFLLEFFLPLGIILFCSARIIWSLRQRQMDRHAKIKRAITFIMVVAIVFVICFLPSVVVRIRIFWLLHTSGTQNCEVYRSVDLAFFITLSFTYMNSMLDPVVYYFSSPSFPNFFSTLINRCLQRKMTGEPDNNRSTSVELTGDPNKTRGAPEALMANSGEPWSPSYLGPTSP

[6] = target: T1, Hydroxycarboxylic acid receptor 1; test: Agonist activity at human GPR81 overexpressed in CHO cells assessed as inhibition of forskolin-stimulated cAMP production at 10 uM relative to control; assay type: functional, cell-based
[7] = target: T2, Protein Gpr81 (Rattus norvegicus) (UniProt G3V906); test: Agonist activity at rat GPR81 overexpressed in HEK293 cells by [35S]GTPgammaS binding assay; assay type: cell-based
T2 sequence (whole entry): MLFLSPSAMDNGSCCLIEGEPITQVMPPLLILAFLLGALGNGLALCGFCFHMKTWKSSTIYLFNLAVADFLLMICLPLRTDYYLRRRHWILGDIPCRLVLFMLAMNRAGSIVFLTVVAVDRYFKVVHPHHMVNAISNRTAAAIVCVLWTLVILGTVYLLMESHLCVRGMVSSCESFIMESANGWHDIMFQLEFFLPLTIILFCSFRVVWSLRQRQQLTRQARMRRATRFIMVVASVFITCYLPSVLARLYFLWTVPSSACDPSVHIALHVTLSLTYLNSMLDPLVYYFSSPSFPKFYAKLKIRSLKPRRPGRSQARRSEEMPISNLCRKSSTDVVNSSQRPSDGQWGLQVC

SMILES | EC50 [1] | logD [2] | solubility [3] | IC50 [4] | Ratio IC50/EC50 (Homo sapiens) | EC50 [5] | Efficacy [6] | Activity [7]
CCOc1cc(Cl)c(C(=O)NC(=O)Nc2nc3c(s2)CCCC3)cc1N1CCOCC1 | 120 nM |  |  |  |  |  |  | 
CCOc1cc(Cl)c(CNC(=O)Nc2nc3ccc(CN4CCN(C)CC4)cc3s2)cc1N1CCOCC1 | > 33000 nM | 3.2 | 188 µM (≈ 105 µg/mL) | > 4970 nM |  |  |  | 
CCOc1cc(Cl)c(C(=O)NC(=O)Nc2ncc(-c3ccccc3)s2)cc1N1CCOCC1 | 103 nM | 4.2 |  |  |  |  |  | 
CCOc1cc(Cl)c(C(=O)Nc2nc3ccc(S(=O)(=O)CCCN4CCN(C)CC4)cc3s2)cc1N1CCO[C@H](C)C1 | 160 nM | 2.4 | 470 µM (≈ 299 µg/mL) | 21000 nM | > 80 | 1400 nM |  | 
CCOc1cc(Cl)c(C(=O)NC(=O)Nc2nc3ccc(CN4CCN(C)CC4)cc3s2)cc1N1CCCC1 | 13 nM | 4 |  |  |  |  |  | 
CCOc1cc(Cl)c(C(=O)Nc2nc3ccc(S(=O)(=O)C4CCN(C)CC4)cc3s2)cc1N1CCOCC1 | 740 nM | 2.5 | 1 µM (≈ 0.579 µg/mL) | > 50000 nM | > 80 | > 9000 nM |  | 
CCOc1cc(Cl)c(C(=O)NC(=O)Nc2nc3ccc(CN4CCN(C)CC4)cc3s2)cc1-n1cccc1 | 22 nM | 4 |  |  |  |  |  | 
CCOc1cc(Cl)c(C(=O)Nc2nc3ccc(S(=O)(=O)CCCN4CCN(C)CC4)cc3s2)cc1N1C[C@@H](C)O[C@@H](C)C1 | 54 nM | 2.7 | 95 µM (≈ 61.8 µg/mL) | 27000 nM | 500 | 660 nM |  | 
CCOc1cc(Cl)c(-c2ccc(-c3nc4c(s3)CN(C(=O)CO)CC4)c(=O)[nH]2)cc1N1CCOCC1 | 22 nM | 2.4 | 7 µM (≈ 3.72 µg/mL) | 1900 nM |  | 910 nM |  | 
CCOc1cc(Cl)c(C(=O)Nc2nc3ccc(S(=O)(=O)CCCN4CCN(C)CC4)cc3s2)cc1N1C[C@H](C)O[C@@H](C)C1 | 270 to 350 nM | 3 | 155 to 231 µM (≈ 101 to 150 µg/mL) | 10000 to 14000 nM | > 80 | 1400 to 3200 nM |  | 
CN1CCC(S(=O)(=O)c2ccc3nc(NC(=O)NC(=O)c4cc(-n5cccn5)c(F)cc4Cl)sc3c2)CC1 | 3600 nM | 2.4 |  |  |  |  | 70% | 
CCOc1ccc(C(=O)NC(=O)Nc2nc3ccc(CN4CCN(C)CC4)cc3s2)c(Cl)c1 | 560 nM | 3.4 |  |  |  |  |  | 
CCOc1cc(Cl)c(NC(=O)Nc2nc3ccc(CN4CCN(C)CC4)cc3s2)cc1N1CCOCC1 | > 33000 nM |  | 20 µM (≈ 10.9 µg/mL) | > 50000 nM |  |  |  | 
CCOc1cc(Cl)c(C(=O)NC(=O)Nc2nc3ccc(CN4CCN(C)CC4)cc3s2)cc1N1CCO[C@H](C)C1 | 32 nM | 3.3 |  |  |  |  |  | 
CCOc1cc(Cl)c(C(=O)N(C)C(=O)Nc2nc3ccc(CN4CCN(C)CC4)cc3s2)cc1N1CCOCC1 | > 16000 nM | 2.5 | 492 µM (≈ 289 µg/mL) | > 50000 nM |  |  |  | 
CCOc1cc(C)c(C(=O)NC(=O)Nc2nc3ccc(CN4CCN(C)CC4)cc3s2)cc1N1CCOCC1 | > 3700 nM | 2.9 |  |  |  |  |  | 
CCOc1cc(Cl)c(C(=O)NC(=O)Nc2nc3ccccc3s2)cc1N1CCOCC1 | 299 nM | 4 |  |  |  |  |  | 
CCOc1cc(Cl)c(-c2ccc(-c3nc4ccc(S(=O)(=O)C5CCN(C)CC5)cc4s3)c(=O)[nH]2)cc1N1CCOCC1 | 5 nM | 3.4 | < 0.5 µM | 460 nM |  | 37 nM |  | 
CCOc1cc(Cl)c(-c2ncc(-c3nc4ccc(S(=O)(=O)C5CCN(C)CC5)cc4s3)c(=O)[nH]2)cc1N1CCOCC1 | 240 nM | 1.6 | 61 µM (≈ 38.4 µg/mL) | > 18000 nM |  | 1600 nM |  | 
CCOc1cc(Cl)c(-c2ccc(-c3nc4c(s3)CN(C(=O)COC)CC4)c(=O)[nH]2)cc1N1CCOCC1 | 75 nM | 2.6 | 29 µM (≈ 15.8 µg/mL) | > 50000 nM |  | 1900 nM |  | 

SMILES | EC50 [1] | logD [2] | solubility [3] | IC50 [4] | Ratio IC50/EC50 (Homo sapiens) | EC50 [5] | Efficacy [6] | Activity [7]
CCOc1ccc(C(=O)NC(=O)Nc2nc3ccc(CN4CCN(C)CC4)cc3s2)cc1N1CCOCC1 | 740 nM | 3 |  |  |  |  | 47% | 
CCOc1cc(Cl)c(-c2ccc(-c3nc4ccccc4s3)c(=O)[nH]2)cc1N1CCOCC1 | 21 nM | > 3.8 | < 0.7 µM | 1300 nM |  | 610 nM |  | 
CN1CCC(S(=O)(=O)c2ccc3nc(NC(=O)NC(=O)c4cc(-n5cccn5)ccc4Cl)sc3c2)CC1 | 7000 nM | 2.3 |  |  |  |  | 74% | 
CCOc1cc(Cl)c(C(=O)NC(=O)Nc2nc3ccc(CN4CCN(C)CC4)cc3s2)cc1-c1ccn[nH]1 | 360 nM | 3.9 |  |  |  |  |  | 
CCOc1cc(Cl)c(C(=O)NC(=O)Nc2nc3ccc(CN4CCN(C)CC4)cc3s2)cc1-n1cccn1 | 19 nM | 3.8 |  |  |  |  |  | 
CCOc1cc(Cl)c(C(=O)NC(=O)Nc2ncc(C)s2)cc1N1CCOCC1 | 769 nM | 3.2 |  |  |  |  |  | 
CCOc1cc(Cl)c(-c2ncc(-c3nc4ccccc4s3)c(=O)[nH]2)cc1N1CCOCC1 | 490 nM | 3.9 | < 0.31 µM | 5200 nM |  | > 22000 nM |  | 
CCOc1cc(Cl)c(C(=O)NC(=O)Nc2nc3c(s2)CN(C(C)=O)CC3)cc1N1CCOCC1 | 719 nM | 2.3 |  |  |  |  |  | 
CCOc1cc(C(F)(F)F)c(C(=O)NC(=O)Nc2nc3ccc(CN4CCN(C)CC4)cc3s2)cc1N1CCOCC1 | 1400 nM | 3.3 |  |  |  |  |  | 
CCOc1cc(Cl)c(C(=O)Nc2nc3ccccc3s2)cc1N1CCOCC1 | 1900 nM | 4.3 | 0.09 µM (≈ 0.0376 µg/mL) | > 50000 nM | > 80 | 12000 nM |  | 
CCOc1cc(Cl)c(C(=O)NC(=O)Nc2nc3ccc(S(=O)(=O)C4CCN(C)CC4)cc3s2)cc1-n1cccn1 | 23 nM | 3 | 0.2 µM (≈ 0.121 µg/mL) | 8 nM |  | 123 nM |  | Active
CCOc1cc(Cl)c(C(=O)Nc2nc3ccc(OC4CCN(C)CC4)cc3s2)cc1N1CCOCC1 | 110 nM | 2.9 | 5 µM (≈ 2.66 µg/mL) | > 30000 nM | > 80 | 1600 nM |  | 
Cc1cc(Cl)c(C(=O)NC(=O)Nc2nc3ccc(S(=O)(=O)C4CCN(C)CC4)cc3s2)cc1-n1cccn1 | 6100 nM | 2.5 |  |  |  |  | 70% | 
CCOc1cc(Cl)c(C(=O)Nc2nc3ccc(S(=O)(=O)CCCN4CCN(C)CC4)cc3s2)cc1N1CCOCC1 | 600 nM | 2 | 323 µM (≈ 201 µg/mL) | > 50000 nM | > 80 | > 6300 nM |  | 
CCOc1cc(Cl)c(C(=O)NC(=O)Nc2nc3ccc(CN4CCN(C)CC4)cc3s2)cc1N1CCOCC1 | 74 nM | 2.9 | 4 µM (≈ 2.29 µg/mL) | 960 nM |  | 2160 nM |  | Active
CCOc1cc(Cl)c(C(=O)NC(=O)Nc2cc3ccccc3s2)cc1N1CCOCC1 | 260 nM | 4.4 |  |  |  |  |  | 
CCOc1cc(Cl)c(C(=O)NC(=O)Nc2nc3ccc(S(=O)(=O)C4CCN(C)CC4)cc3s2)cc1N1CCOCC1 | 166 nM | 2.2 |  |  |  |  |  | 
CCOc1cc(Cl)c(C(=O)Nc2nc3ccc(CN4CCN(C)CC4)cc3s2)cc1N1CCOCC1 | 410 nM | 2.8 | 1.5 µM (≈ 0.795 µg/mL) | > 50000 nM | > 80 | > 11000 nM |  | 
CCOc1cc(Cl)c(C(=O)NC(=O)Nc2nc3c(s2)CN(C(=O)CO)CC3)cc1N1CCOCC1 | 895 nM | 1.7 |  |  |  |  |  | 
